# From US20230091472A1, “GALECTIN-3 INHIBITING C-GLYCOSIDE KETONES, ETHERS, AND ALCOHOLS” (GLYCOMIMETICS, INC., priority 2019, published 2023)
# Molecular target: T1, galectin-3 (Homo sapiens, UniProt P17931)
# T1 construct: purchased IBL IBATGPO414
# Test: Galectin-3 Activity - ELISA Assay (inhibition of binding of galectin-3 to a Galβ1-3GlcNAc carbohydrate structure)
# Details: competitive ELISA; galectin-3 binding to immobilized Galβ1-3GlcNAcβ1-3Galβ1-4GlcNAcβ-PAA-biotin polymer; A450 readout; read-out: IC50 (μM), Galectin-3 Antagonist Activity
# Description: Galectin-3 antagonists were evaluated for their ability to inhibit binding of galectin-3 to a Galβ1-3GlcNAc carbohydrate structure. The detailed protocol was as follows. A 1 ug/mL suspension of a Galβ1-3GlcNAcβ1-3Galβ1-4GlcNAcβ-PAA-biotin polymer (Glycotech, catalog number 01-096) was prepared. A 100 uL aliquot of the polymer was added to the wells of a 96-well streptavidin-coated plate (R&D Systems, catalog number CP004). A 100 uL aliquot of 1× Tris Buffered Saline (TBS, Sigma, catalog number T5912-10X) was added to control wells. The polymer was allowed to bind to the streptavidin-coated wells for 1.5 hours at room temperature. The contents of the wells were discarded and 200 uL of 1×TBS containing 1% bovine serum albumin (BSA) was added to each well as a blocking reagent and the plate was kept at room temperature for 30 minutes. The wells were washed three times with 1×TBS containing 0.1% BSA. A serial dilution of test compounds was prepared in a separate V-bottom plate (Corning, catalog number 3897). A 75 uL aliquot of the highest concentration of the compound to be tested was added to the first well in a column of the V-bottom plate then 15 ul were serially transferred into 60 uL 1×TBS through the remaining wells in the column to generate a 1 to 5 serial dilution. A 60 uL aliquot of 2 ug/mL galectin-3 (IBL, catalog number IBATGPO414) was added to each well in the V-bottom plate. A 100 uL aliquot of the galectin-3/test compound mixture was transferred from the V-bottom plate into the assay plate containing the Galβ1-3GlcNAc polymer. Four sets of control wells in the assay plate were prepared in duplicate containing 1) both Galβ1-3GlcNAc polymer and galectin-3, 2) neither the polymer nor galectin-3, 3) galectin-3 only, no polymer, or 4) polymer only, no galectin-3. The plate was gently rocked for 1.5 hours at room temperature. The wells were washed four times with TBS/0.1% BSA. A 100 uL aliquot of anti-galectin-3 antibody conjugated to horse radish peroxidase (R&D Systems, from DGAL30 kit) was added to each well and the plate was kept at room temperature for 1 hour. The wells were washed four times with TBS/0.1% BSA. A 100 uL aliquot of TMB substrate solution was added to each well. The TMB substrate solution was prepared by making a 1:1 mixture of TMB Peroxidase Substrate (KPL, catalog number 5120-0048) and Peroxidase Substrate Solution B (KPL, catalog number 5120-0037). The plate was kept at room temperature for 10 to 20 minutes. The color development was stopped by adding 100 uL 10% phosphoric acid (RICCA Chemical Co., catalog number 5850-16). The absorbance at 450 nm (A450) was measured using a FlexStation 3 plate reader (Molecular Devices). Plots of A450 versus test compound concentration and IC50 determinations were made using GraphPad Prism 6.
# T1 sequence (P17931 whole entry): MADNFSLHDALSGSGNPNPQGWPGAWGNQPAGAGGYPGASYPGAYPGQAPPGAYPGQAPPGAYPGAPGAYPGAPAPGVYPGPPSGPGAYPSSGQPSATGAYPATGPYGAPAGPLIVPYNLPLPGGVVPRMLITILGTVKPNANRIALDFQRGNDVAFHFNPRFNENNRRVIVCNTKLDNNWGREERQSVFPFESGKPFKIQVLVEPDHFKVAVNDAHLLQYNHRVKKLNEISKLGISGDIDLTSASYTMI
row,IC50 [µM],Structure (SMILES)
1,0.82,COC1C(n2cc(-c3cc(F)c(F)c(F)c3)nn2)[C@@H](O)C(CO)O[C@H]1[C@H](OCc1ccc(Cl)cc1)C(C)=O (stereo partly drawn) [Compound 32]
2,0.63,COC1C(n2cc(-c3cc(F)c(F)c(F)c3)nn2)[C@@H](O)C(CO)O[C@H]1[C@H](OCc1ccc(Cl)cc1)C(=O)CC(C)C (stereo partly drawn) [Compound 33]
3,0.84,COC1C(n2cc(-c3cc(F)c(F)c(F)c3)nn2)[C@@H](O)C(CO)O[C@H]1[C@H](OCc1ccc(Cl)cc1)C(=O)c1cccs1 (stereo partly drawn) [Compound 34]
4,0.75,CCC(=O)[C@@H](OCc1ccc(Cl)cc1)[C@@H]1OC(CO)[C@H](O)C(n2cc(-c3cc(F)c(F)c(F)c3)nn2)C1OC (stereo partly drawn) [Compound 35]
5,1.18,COC1C(n2cc(-c3cc(F)c(F)c(F)c3)nn2)[C@@H](O)C(CO)O[C@H]1[C@H](OCc1ccc(Cl)cc1)C(=O)C1CC1 (stereo partly drawn) [Compound 75]

# Second part, the molecule before the results:
row,Structure (SMILES),IC50 [µM]
1,CC(=O)[C@@H](OCc1ccc(Br)cc1)[C@@H]1OC(CO)[C@H](O)C(n2cc(-c3cc(F)c(F)c(F)c3)nn2)C1O (stereo partly drawn) [Compound 16],0.32
2,COC1C(n2cc(-c3cc(F)c(F)c(F)c3)nn2)[C@@H](O)C(CO)O[C@H]1[C@H](OCc1ccc(Cl)cc1)[C@@H](C)O (stereo partly drawn) [Compound 41],0.59
3,COC1C(n2cc(-c3cc(F)c(F)c(F)c3)nn2)[C@@H](O)C(CO)O[C@H]1[C@H](OCc1ccc(C(F)(F)F)nc1)C(C)(C)O (stereo partly drawn) [Compound 44],57
4,CCC(=O)[C@@H](OCc1ccc(Cl)cc1)[C@@H]1OC(CO)[C@H](O)C(n2cc(-c3cc(F)c(F)c(F)c3)nn2)C1O (stereo partly drawn) [Compound 74],0.32
5,[2H]C([2H])([2H])OC1C(n2cc(-c3cc(F)c(F)c(F)c3)nn2)[C@@H](O)C(CO)O[C@H]1[C@H](OCc1ccc(Cl)cc1)C(=O)C([2H])([2H])C([2H])([2H])[2H] (stereo partly drawn) [Compound 76],0.66
6,[2H]C([2H])([2H])OC1C(n2cc(-c3cc(F)c(F)c(F)c3)nn2)[C@@H](O)C(CO)O[C@H]1[C@H](OCc1ccc(Cl)cc1)C(C)=O (stereo partly drawn) [Compound 77],1.09
7,[2H]C([2H])([2H])OC1C(n2cc(-c3cc(F)c(F)c(F)c3)nn2)[C@@H](O)C(CO)O[C@H]1[C@H](OCc1ccc(Br)cc1)C(=O)C([2H])([2H])C([2H])([2H])[2H] (stereo partly drawn) [Compound 78],0.5
8,[2H]C([2H])([2H])OC1C(n2cc(-c3cc(F)c(F)c(F)c3)nn2)[C@@H](O)C(CO)O[C@H]1[C@H](OCc1ccc(Br)cc1)C(=O)c1ccc(F)cc1 (stereo partly drawn) [Compound 79],1.76
9,[2H]C([2H])([2H])OC1C(n2cc(-c3cc(F)c(F)c(F)c3)nn2)[C@@H](O)C(CO)O[C@H]1[C@H](OCc1ccc(Br)cc1)C(=O)c1ccsc1 (stereo partly drawn) [Compound 80],0.44
10,[2H]C([2H])([2H])OC1C(n2cc(-c3cc(F)c(F)c(F)c3)nn2)[C@@H](O)C(CO)O[C@H]1[C@H](OCc1ccc(Br)cc1)C(=O)c1ccc(Cl)s1 (stereo partly drawn) [Compound 81],3.21
